Results published in EP2077260B1, “AMIDE COMPOUND OR SALT THEREOF, AND BIOFILM FORMATION INHIBITOR, BIOFILM REMOVER AND BACTERICIDE EACH USING THE AMIDE COMPOUND OR SALT THEREOF” (The University of Tokyo, priority 2006, dated 2008).
Where a name gives a salt, the structure may show the parent alone. Read-outs that look alike come from different tables or passages of the source.

Assays:
Type in all cases: cell-based
[1] = system: Porphyromonas gingivalis 381-strain (clinical strain); test: Evaluation test for biofilm formation inhibition effect against periodontitis pathogenic bacteria (flow cell system, HA disks, turbidity); settings: 100µM, 14 days
Experimental: As with Experiment Example 1, using the flow cell system of FIG. 1, an inhibitory effect against biofilm formation by periodontitis pathogenic bacteria was evaluated for each of the amide compounds produced in Production Examples 1, 3, 5, and 6 (Compounds 1a-1, 1b-1, 1c-1, 1c-2).
Periodontitis pathogenic bacteria Porphyromonas gingivalis 381-strain (clinical strain) was used..
A GAM culture medium containing hemin 5µg/L and menadione 1µg/L was used.
The 381-strain was inoculated in the GAM culture medium, and cultivated until stationary phase (OD550=1.8). Then the culture medium was diluted 20-fold by a fresh GAM culture medium containing the above-mentioned substances.
The test liquid was prepared by dissolving 100µM of each of the Compounds 1a-1, 1b-1, 1c-1, or 1c-2 according to Production Examples 1, 3, 5 and 6 and 100µM of Comparative Compounds 1 and 2 as comparative examples in dimethyl sulfoxide (DMSO), and supplying the resulting DMSO solutions to the above-mentioned bacterial suspensions so that the concentration of each compound becomes 0.1%(v/v).
A DMSO not containing the compound was used as a control test liquid.
The glass cell (4) of the flow cell system (see FIG. 1) was replaced with a stainless cell (3 x 7 x 120mm), and 10 hydroxyapatite (HA) disks (6mm in diameter, 1mm in thickness) were placed in the cell. The HA disks had been subjected to salivary treatment overnight. Each of the test liquids and control test liquids was circulated in the system at a flow rate of 8mL/min for 14 days, Note that the test liquids and the control test liquids were replaced with fresh liquids every two days.
After the cultivation, the HA disks were dipped in 300µL of sterile distilled water, and treated by supersonic wave for 30 minutes at 4°C, The biofilms formed in the HA disks were peeled off and suspended in distilled water. Then, 100µL of the suspension liquid was measured for the turbidity with an absorptiometer (C07500 colorimeter, product of Funakoshi) (measurement wavelength = 550 nm).
A mean OD was found based on the resulting OD values, excluding the minimum and maximum values, Also, a mean value of the turbidities for the Control Test Liquids was found in the same manner as the control mean OD value. A biofilm formation inhibition rate (Inhibition Rate) was found by the following formula. Biofilm Formation Inhibition Rate (%) = […] [formula]

[2] = system: Pseudomonas aeruginosa ATCC 27853; test: Evaluation test for disinfecting effect, broth dilution method CLSI(M7-A7)2006; settings: ATCC27853, 18 h
Description: (§1) The following test compounds were examined for the disinfecting activities against Pseudomonas aeruginosa, E.. Coli and staphylococcus aureus, according to a broth dilution method of "CLSI(M7-A7)2006" (Clinical and Laboratory Standards Institute, M7-A7, Methods for Dilution Antimicrobial Susceptibility Tests for Bacteria That Grow Aerobically; Approved Standard-Seventh Edition, 2006),
(§2) • Pseudomonas aeruginosa PAO1 • Pseudomonas aeruginosa ATCC 27853 • Escherichia coli ATCC 25922 • Staphylococcus aureus ATCC 29213 • Staphylococcus aureus Methicillin resistant (MRSA) ATCC 43300
(§3) Each of above-mentioned bacteria was inoculated in a TSB culture medium (Bacto TSB Broth, product of BD) for overnight cultivation at 37°C. The culture solution was applied to a TSB agar plate for about a 20-hour cultivation to form colonies. Three to five colonies were taken from the agar plate, and an average colony of them was inoculated in a 4mL TSB culture medium.. The colony was cultivated at 35°C until the number of microorganisms became 1 × 10^8 to 2 x 10^8 CFU/mL. The number of microorganisms with time was found by measuring changes in absorbency at 590nm of culture solution with time. When the turbidity became equivalent to 0.5 McFarland standard, it was determined that the number of microorganisms reached the target level = 1 × 10^8 to 2 × 10^8 CFU/mL.
(§4) The bacillus culture solution thus obtained was diluted 10-fold within 15 minutes, and a 5µL portion was inoculated in each well of an evaluation 96-well microplate. This 96-well microplate was a sterilized 96-well microplate with U-shaped bottoms (Falcon 35-3918: product of BD), and each well was filled with a 100µL portion of MH culture medium (BBL MH Broth: product of BD). Within 15 minutes after inoculation of the bacillus culture solutions, the test compounds were supplied to the well in a manner of 2-fold graded dilution. The cultivation was then carried out at 37°C for 18 hours.
(§5) The MIC was determined as follows. "S (susceptible)" indicates a concentration which caused 80% or more reduction in the diameter of the aggregation deposited in the bottom of the well, compared to when the test liquid is not used. "R (Resistant)" indicates a concentration that caused less than 80% reduction in diameter. The reduction was measured visually.. "I(Intermediate)" indicates a concentration that cannot be measured visually

[3] = system: Pseudomonas aeruginosa PAO1; test: as above; settings: PAO1, 18 h
Description: as §1, §2, §3, §4, §5

[4] = system: Staphylococcus aureus ATCC 29213; test: as above; settings: ATCC29213, 18 h
Description: as §1, §2, §3, §4, §5

[5] = system: Escherichia coli ATCC 25922; test: as above; settings: ATCC25922, 18 h
Description: as §1, §2, §3, §4, §5

[6] = system: Staphylococcus aureus Methicillin resistant (MRSA) ATCC 43300; test: as above; settings: 18 h
Description: as §1, §2, §3, §4, §5

SMILES | MIC ([2]; read-out: MIC (µg/mL) I) | MIC ([2]; read-out: MIC (µg/mL) R) | MIC ([2]; read-out: MIC (µg/mL) S) | MIC ([3]; read-out: MIC (µg/mL) I) | MIC ([3]; read-out: MIC (µg/mL) R) | MIC ([3]; read-out: MIC (µg/mL) S) | MIC ([4]; read-out: MIC (µg/mL) I) | MIC ([4]; read-out: MIC (µg/mL) R) | MIC ([4]; read-out: MIC (µg/mL) S) | MIC ([5]; read-out: MIC (µg/mL) I) | MIC ([5]; read-out: MIC (µg/mL) R) | MIC ([5]; read-out: MIC (µg/mL) S) | MIC ([6]; read-out: MIC (µg/mL) I) | MIC ([6]; read-out: MIC (µg/mL) R) | MIC ([6]; read-out: MIC (µg/mL) S) | Mean OD Value ([1]; turbidity at 550 nm of biofilm peeled off HA disks) | inhibition at 100 µM ([1]; Porphyromonas gingivalis, 336 h, relative to control test liquid (Mean Comparison OD Value), read-out: Biofilm Formation Inhibition Rate(%))
CCCCCCCCCC(O)CC(=O)NN1CCCC1 (stereo not drawn) [Compound 1c-2, N-(pyrrolidin-1-yl)-3-hydroxy dodecanoyl amide] | – | – | – | – | – | – | – | – | – | – | – | – | – | – | – | 0.041 | 87.8%
CCCCCCCCCCCC(=O)NC1CCNC1 (stereo not drawn) [Hydrochloride salt of Compound 1a-1, N-(pyrrolidin-3-yl) dodecanoyl amide] | 64 µg/mL | ≤ 32 µg/mL | ≥ 128 µg/mL | 64 µg/mL | ≤ 32 µg/mL | ≥ 128 µg/mL | 8 µg/mL | ≤ 4 µg/mL | ≥ 16 µg/mL | 8 µg/mL | ≤ 4 µg/mL | ≥ 16 µg/mL | 8 µg/mL | ≤ 4 µg/mL | ≥ 16 µg/mL | – | –

More lines, main results first:

MIC ([2]; read-out: MIC (µg/mL) I) | MIC ([2]; read-out: MIC (µg/mL) R) | MIC ([2]; read-out: MIC (µg/mL) S) | MIC ([3]; read-out: MIC (µg/mL) I) | MIC ([3]; read-out: MIC (µg/mL) R) | MIC ([3]; read-out: MIC (µg/mL) S) | MIC ([4]; read-out: MIC (µg/mL) I) | MIC ([4]; read-out: MIC (µg/mL) R) | MIC ([4]; read-out: MIC (µg/mL) S) | MIC ([5]; read-out: MIC (µg/mL) I) | MIC ([5]; read-out: MIC (µg/mL) R) | MIC ([5]; read-out: MIC (µg/mL) S) | MIC ([6]; read-out: MIC (µg/mL) I) | MIC ([6]; read-out: MIC (µg/mL) R) | MIC ([6]; read-out: MIC (µg/mL) S) | SMILES | Mean OD Value ([1]; turbidity at 550 nm of biofilm peeled off HA disks) | inhibition at 100 µM ([1]; Porphyromonas gingivalis, 336 h, relative to control test liquid (Mean Comparison OD Value), read-out: Biofilm Formation Inhibition Rate(%))
– | ≤ 512 µg/mL | ≥ 1020 µg/mL | – | ≤ 512 µg/mL | ≥ 1020 µg/mL | – | ≤ 128 µg/mL | ≥ 256 µg/mL | – | ≤ 128 µg/mL | ≥ 256 µg/mL | – | ≤ 128 µg/mL | ≥ 256 µg/mL | CCCCCCCCCC(=O)NC1CCNC1 (stereo not drawn) [Hydrochloride salt of Compound 1a-2, N-(pyrrolidin-3-yl) decanoyl amide] | – | –
64 µg/mL | ≤ 32 µg/mL | ≥ 128 µg/mL | 64 µg/mL | ≤ 32 µg/mL | ≥ 128 µg/mL | 8 µg/mL | ≤ 4 µg/mL | ≥ 16 µg/mL | – | ≤ 8 µg/mL | ≥ 16 µg/mL | 8 µg/mL | ≤ 4 µg/mL | ≥ 16 µg/mL | CCCCCCCCCCCC(=O)NC1CCNCC1 [Hydrochloride salt of Compound 1b-1, N-(piperidin-4-yl) dodecanoyl amide] | – | –
– | ≤ 512 µg/mL | ≥ 1020 µg/mL | – | ≤ 512 µg/mL | ≥ 1020 µg/mL | – | ≤ 128 µg/mL | ≥ 256 µg/mL | – | ≤ 128 µg/mL | ≥ 256 µg/mL | – | ≤ 128 µg/mL | ≥ 256 µg/mL | CCCCCCCCCC(=O)NC1CCNCC1 [Hydrochloride salt of Compound 1b-2, N-(piperidin-4-yl) decanoyl amide] | – | –
